pIC50: −log10 of the molar value. Where a SMILES comes first, the peptide text is derived from it. The star is where a group is joined. Cbz = O=C(OCc1ccccc1)*; X1 = C=CO*
What was measured:
[1] = Inhibition of trypsin-like activity of proteasome from human LCL after 30 mins by fluorimetry; format: subcellular
[2] = Inhibition of […] activity of proteasome from human LCL after 30 mins by fluorimetry; format: subcellular
[3] = Inhibition of post acidic activity of proteasome from human LCL after 30 mins by fluorimetry; format: subcellular
[4] = Inhibition of trypsin-like activity of proteasome from human PBMC after 30 mins by fluorimetry; format: subcellular
[5] = Inhibition of […] activity of proteasome from human PBMC after 30 mins by fluorimetry; format: subcellular
[6] = Inhibition of post acidic activity of proteasome from human PBMC after 30 mins by fluorimetry; format: subcellular
[7] = Inhibition of trypsin-like activity of proteasome in human PBMC after 30 mins by cell based assay; settings: 0.5 h
[8] = Inhibition of […] activity of proteasome from human PBMC after 30 mins by cell based assay; settings: 0.5 h
[9] = Inhibition of post acidic activity of proteasome from human PBMC after 30 mins by cell based assay; settings: 0.5 h
Homo sapiens = organism: Homo sapiens; experiment: Stability in human plasma assessed as half life
[10] = Antiproliferative activity against human LCL cells assessed as cell viability at <10 uM after 3 days by trypan blue assay; format: cell-based; settings: 72 h
JIYOYE [11] = experiment: Antiproliferative activity against human Jijoye cells assessed as cell viability at <10 uM after 3 days by trypan blue assay; format: functional, cell-based
[12] = Antiproliferative activity against human LCL cells assessed as cell viability at 10 uM after 3 days by trypan blue assay; format: cell-based; settings: 72 h
JIYOYE [13] = experiment: Antiproliferative activity against human Jijoye cells assessed as cell viability at 10 uM after 3 days by trypan blue assay; format: functional, cell-based

pIC50 [1] | pIC50 [2] | pIC50 [3] | pIC50 [4] | pIC50 [5] | pIC50 [6] | pIC50 [7] | pIC50 [8] | pIC50 [9] | half-life (Homo sapiens) | SMILES | Activity [10] | Activity (JIYOYE [11]) | Activity [12] | Activity (JIYOYE [13])
< 5.00 | < 5.00 | 5.68 | 5.14 | < 5.00 | 6.68 | < 5.00 | < 5.00 | 6.48 | > 6 h | C=COC(=O)[C@H](CC(C)C)NC(=O)[C@H](CC(C)C)NC(=O)[C@H](CC(C)C)NC(=O)CCCNC(=O)OCc1ccccc1 |  |  |  | 
< 5.00 | < 5.00 | < 5.00 | < 5.00 | < 5.00 | 5.54 |  |  |  |  | C=COC(=O)[C@H](CC(C)C)NC(=O)[C@H](CO)NC(=O)[C@@H](NC(=O)CNC(=O)OCc1ccccc1)C(C)C (Cbz-GVSL-X1) |  |  |  | 
< 5.00 | < 5.00 | 5.97 | 5.22 | < 5.00 | 7.28 | 5.05 | < 5.00 | 7.07 | > 6 h | C=COC(=O)[C@H](CC(C)C)NC(=O)[C@H](CC(C)C)NC(=O)[C@H](CC(C)C)NC(=O)CCCCCNC(=O)OCc1ccccc1 | Non-toxic | Non-toxic | Toxic | Toxic
< 5.00 | < 5.00 | < 5.00 | < 5.00 | < 5.00 | 6.26 |  |  |  |  | C=COC(=O)[C@H](CC(C)C)NC(=O)[C@H](CC(C)C)NC(=O)[C@H](CC(C)C)NC(=O)CNC(=O)OCc1ccccc1 (Cbz-GLLL-X1) |  |  |  | 
< 5.00 | < 5.00 | 5.25 | < 5.00 | < 5.00 | 6.76 | < 5.00 | < 5.00 | 6.66 | > 6 h | C=COC(=O)[C@H](CC(C)C)NC(=O)[C@H](CO)NC(=O)[C@@H](NC(=O)CCCCCCCNC(=O)OCc1ccccc1)C(C)C | Non-toxic | Non-toxic | Toxic | Toxic
< 5.00 | < 5.00 | 5.20 | < 5.00 | < 5.00 | 6.13 |  |  |  |  | C=COC(=O)[C@H](CC(C)C)NC(=O)[C@H](CO)NC(=O)[C@@H](NC(=O)CCCNC(=O)OCc1ccccc1)C(C)C |  |  |  | 
< 5.00 | < 5.00 | 6.06 | 5.22 | < 5.00 | 7.11 | 5.02 | < 5.00 | 6.89 | > 6 h | C=COC(=O)[C@H](CC(C)C)NC(=O)[C@H](CC(C)C)NC(=O)[C@H](CC(C)C)NC(=O)CCCCNC(=O)OCc1ccccc1 |  |  |  | 
< 5.00 | < 5.00 | 5.63 | < 5.00 | < 5.00 | 6.67 | < 5.00 | < 5.00 | 6.49 | > 6 h | C=COC(=O)[C@H](CC(C)C)NC(=O)[C@H](CC(C)C)NC(=O)[C@H](CC(C)C)NC(=O)CCNC(=O)OCc1ccccc1 |  |  |  | 
< 5.00 | < 5.00 | 5.81 | < 5.00 | < 5.00 | 6.64 | < 5.00 | < 5.00 | 6.35 | > 6 h | C=COC(=O)[C@H](CC(C)C)NC(=O)[C@H](CO)NC(=O)[C@@H](NC(=O)CCCCNC(=O)OCc1ccccc1)C(C)C |  |  |  | 
< 5.00 | < 5.00 | 5.61 | < 5.00 | < 5.00 | 6.31 |  |  |  |  | C=COC(=O)[C@H](CC(C)C)NC(=O)[C@H](CC(C)C)NC(=O)[C@H](CC(C)C)NC(=O)CCCCCCCNC(=O)OCc1ccccc1 |  |  |  | 
< 5.00 | < 5.00 | < 5.00 | < 5.00 | < 5.00 | 6.08 |  |  |  |  | C=COC(=O)[C@H](CC(C)C)NC(=O)[C@H](CO)NC(=O)[C@@H](NC(=O)CCNC(=O)OCc1ccccc1)C(C)C |  |  |  | 
< 5.00 | < 5.00 | 5.78 | < 5.00 | < 5.00 | 6.78 |  |  |  |  | C=COC(=O)[C@H](CC(C)C)NC(=O)[C@H](CC(C)C)NC(=O)[C@H](CC(C)C)NC(=O)CCCCCCNC(=O)OCc1ccccc1 |  |  |  | 
< 5.00 | < 5.00 | 5.57 | < 5.00 | < 5.00 | 6.73 | < 5.00 | < 5.00 | 6.63 | > 6 h | C=COC(=O)[C@H](CC(C)C)NC(=O)[C@H](CO)NC(=O)[C@@H](NC(=O)CCCCCCNC(=O)OCc1ccccc1)C(C)C |  |  |  | 
< 5.00 | < 5.00 | 5.86 | < 5.00 | < 5.00 | 6.70 | < 5.00 | < 5.00 | 6.39 | > 6 h | C=COC(=O)[C@H](CC(C)C)NC(=O)[C@H](CO)NC(=O)[C@@H](NC(=O)CCCCCNC(=O)OCc1ccccc1)C(C)C |  |  |  | 

SMILES | pIC50 [1] | pIC50 [2] | pIC50 [3] | pIC50 [4] | pIC50 [5] | pIC50 [6] | pIC50 [7] | pIC50 [8] | pIC50 [9] | half-life (Homo sapiens) | Activity [10] | Activity (JIYOYE [11]) | Activity [12] | Activity (JIYOYE [13])
CC(C)C[C@@H](C=O)NC(=O)[C@H](CC(C)C)NC(=O)[C@H](CC(C)C)NC(=O)OCc1ccccc1 [MG-132] (Cbz-Leu-Leu-Leu-aldehyde) | 5.97 | 8.70 | < 5.00 | 6.04 | 7.64 | < 5.00 |  |  |  |  |  |  |  | 
CC[C@H](C)[C@H](NC(=O)[C@H]([C@@H](C)CC)N(C)C(C)=O)C(=O)N[C@H](C(=O)N[C@@H](CC(C)C)C(=O)[C@@]1(C)CO1)[C@@H](C)O [EPOXOMYCIN] |  | 8.30 |  | 6.12 | 8.05 | < 5.00 |  |  |  |  |  |  |  | 

From ChEMBL document CHEMBL1152416, “N-terminal-prolonged vinyl ester-based peptides as selective proteasome beta1 subunit inhibitors” (Bioorg Med Chem, 2009)
